Key:
α-glucosidase = biological target: T1, α-glucosidase (Saccharomyces cerevisiae, UniProt P53341); assay: α-glucosidase inhibition assay (in situ screen, IC50, Ki); format: biochemical, baker's yeast
T1 construct: purchased Sigma Co. (St. Louis, Mo.); host or cells: baker's yeast
Experimental: (§1) A mixture of iminocyclitol 4, a carboxylic acid (1 equiv, Scheme 2), diisopropyl ethylamine (DIEA, 2.2 equiv), and (1H-benzotriazole-1-yl)-1,1,3,3-tetramethyl-uronium hexafluorophosphate (HBTU, 1.1 equiv) in DMSO was shaken in 96-well microtiter plates for 5 h. Crude reaction products were randomly selected (30%) and analyzed by ESI-MS to ensure the presence of the desired products. The reaction mixture was diluted by appropriate buffer solutions and transferred to another 96-well microtiter plate for screening directly without any purification. […] Assuming the amide formation is complete, the percentage of inhibition relative to the control was calculated on the basis of absorbance at 405 nm for p-nitrophenol released from their corresponding substrates.
General procedure for coupling reactions and in situ screening. To a DMSO solution (10 μL) in each well of a 96-well microtiter plate was added each carboxylic acid (10 μL from a 10 mm stock solution in DMSO, 0.1 μmol), HBTU (10 μL from a 11 mm stock solution in DMSO, 1.1 equiv, 0.11 μmol), and DIEA (10 μL from a 22 mM stock solution in DMSO, 2.2 equiv, 0.22 μmol).
(§2) Enzyme assay. General procedure for the assay with various glycosidases. The initial velocities of the hydrolysis were measured spectrophotometrically at various concentrations of p-nitrophenyl-glycopyranoside (4 mM, 2 mM, 1 mM, 0.5 mM, 0.25 mM, 0.125 mM, 0.0625 mM) at 405 nm using Bio Assay Reader (Perkin Elmer HTS 7000 Plus) at 30° C. The obtained data were fitted into the Michaelis-Menten equation by using the Kaleida Graph program to determine the apparent Km values. […] The assays performed in wells of the microtiter plate contained either sodium phosphate buffer (50 mM, pH 7, for α- and β-glucosidase, α- and β-galactosidase, α- and β-mannosidase, α-fucosidase), or Mcllvaine's buffer (25 mM, pH 6, N-acetyl-β-hexosaminidase, jack bean).
(§3) The secondary plot was generated by plotting the apparent Km values as a function of inhibitor concentrations. Ki was calculated from the negative value of the x-intercept of this plot.

β-glucosidase = β-glucosidase inhibition assay (in situ screen, IC50, Ki); format: biochemical, almonds
Experimental: as §1, §2, §3

[1] = biological target: N-acetyl-β-hexosaminidase; assay: N-acetyl-β-hexosaminidase inhibition assay (in situ screen, IC50, Ki); format: biochemical, jack bean
Experimental: as §1, §2, §3

[2] = biological target: human N-acetyl-β-hexosaminidases; conditions: previous study [30]; cited from earlier work
SARS-CoV = format: cell-based, SARS-CoV (H. K. strain); conditions: Vero E6 cells
[3] = tested on: Japanese encephalitis virus (JEV); assay: Anti-JEV cell-based assay (plaque forming assay, BHK-21 cells); conditions: M.O.I. = 0.1, virus production, BHK-21 cells; for IC50: read-out: JEV IC50; for IC90: read-out: JEV IC90
[4] = tested on: dengue virus serotype 2 (DEN-2); assay: Anti-DEN-2 cell-based assay (plaque forming assay, BHK-21 cells); conditions: M.O.I. = 0.1, virus production, BHK-21 cells; for IC50: read-out: DEN IC50; for IC90: read-out: DEN IC90
BHK-21 cells = assay: XTT cell viability assay; format: cell-based; conditions: 10 μM, FIG. 2A
Experimental: XTT assay. To determine cell viability, a colorimetric XTT-based assay was performed (Cell Proliferation Kit II; Roche). BHK-21 cells in a 96-well plate were incubated with various concentrations of inhibitors for 2 days before the XTT labeling reagent was added to the culture medium. Cells were incubated at 37° C. for about 30 min and then read by an enzyme-linked immunosorbent assay (ELISA) reader at 450 nm (Molecular Devices).

[5] = tested on: human chondrosarcoma cells; conditions: cell-associated fraction and culture supernatant; previous study; cited from earlier work
[6] = biological target: human placenta N-acetyl-β-hexosaminidase; assay: Kinetic analysis of human placenta β-hexosaminidase; format: biochemical; conditions: substrate 4-MU-GNAc, pH 4.5
Experimental: Our strategy began with reductive amination of compound 5 with aldehydes of different lengths to give compounds 43-49 (FIG. 4). The intermediates were either deprotected under acidic conditions or hydrogenolysed to give primary amines 50-56. […] Thus, the inhibition studies of compounds 51-56 against human placenta N-acetyl-β-hexosaminidase were carried out. 4-Methylumbelliferyl N-acetyl-β-D-glucosaminide (4-MU-GNAc) was used as the substrate. The apparent Km and Vmax values for each substrate were calculated from the Lineweaver-Burke double reciprocal plot of [1/v]/[1/S]. The Ki values were determined from a replot of the Km (app) vs the inhibitor concentration. […] (FIG. 4). […] Compound 54 with a heptamine moiety was the strongest inhibitor. […] As the crystal structure of human β-hexosaminidase B is now avalible,^[43] its complex with 54 was modeled to reveal a narrow hydrophobic cleft in the active site, which is mainly enclosed by the side-chain groups of residues W424, Y450, […], L453 and the backbone of residues K425 and D426 (FIG. 5). The amino group at the terminal site is expected to be largely protonated when binding with the enzyme. It presumably forms a salt bridge with the secondary aglycon binding site of the enzyme.^[44] It appears that the alkyl linkage is long enough to bring the amine end near enough to have hydrogen-bond interactions with the backbone carbonyl of K425 and A447 and a possible ionic interaction with the carboxyl group of D426.
Kinetic analysis of human placenta β-hexosaminidase. Incubations were performed in a total volume of 200 μL. Unless otherwise stated, reaction mixtures contained 100 mM citrate buffer (pH 4.5), various amount of 4-methylumbelliferyl N-acetyl-β-D-glucosaminide, and various amounts of inhibitors with 0.02 mU/well of β-hexosaminidase. After incubation for 15 min at 30° C., the reaction was terminated by the addition of 0.5 M sodium glycine buffer, pH 10.5. Enzyme activity was measured by the release of 4-methylumbelliferone with the excitation wavelength of 360 nm and the emission wavelength of 460 nm.

[7] = tested on: Japanese encephalitis virus (JEV); conditions: earlier work [16]; cited from earlier work
[8] = tested on: dengue virus serotype 2 (DEN-2); conditions: earlier work [16]; cited from earlier work
[9] = reaction product at 20 μM, in situ screening

T1 sequence (P53341 whole entry): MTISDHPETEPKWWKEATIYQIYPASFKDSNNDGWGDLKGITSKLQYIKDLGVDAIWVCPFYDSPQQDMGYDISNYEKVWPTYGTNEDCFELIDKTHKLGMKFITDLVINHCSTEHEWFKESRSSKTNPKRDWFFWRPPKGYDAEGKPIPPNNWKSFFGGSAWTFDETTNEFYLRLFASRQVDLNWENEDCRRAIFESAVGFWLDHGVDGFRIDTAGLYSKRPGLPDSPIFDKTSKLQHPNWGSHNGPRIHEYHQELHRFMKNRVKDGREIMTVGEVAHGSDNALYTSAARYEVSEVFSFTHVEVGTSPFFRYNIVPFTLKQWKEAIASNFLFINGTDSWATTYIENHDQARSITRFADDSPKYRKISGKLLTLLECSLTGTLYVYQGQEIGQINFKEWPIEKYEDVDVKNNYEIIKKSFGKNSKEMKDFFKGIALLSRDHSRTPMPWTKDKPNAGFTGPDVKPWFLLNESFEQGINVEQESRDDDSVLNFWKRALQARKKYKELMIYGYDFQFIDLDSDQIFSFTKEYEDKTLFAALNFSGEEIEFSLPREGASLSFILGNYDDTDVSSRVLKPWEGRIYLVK

`CC(=O)NC[C@H]1N[C@H](CO)[C@@H](O)[C@@H]1O` [Compound 5] gave an IC50 (α-glucosidase; pure compound) of 280 µM, an inhibition at 20 µM (α-glucosidase; [9]) of 12% and an IC50 (β-glucosidase; pure compound) of over 500 µM. The “β-glucosidase Inhibition (%)” value (β-glucosidase; [9]) was 20%, the IC50 ([1]; pure compound, read-out: N-acetyl-β-hexosaminidse IC50) was 0.16 µM and the “N-acetyl-β-hexosaminidse Inhibition (%)” value ([1]; reaction product at 30 μM, in situ screening) was 85%. The Ki ([1]; value in brackets, read-out: N-acetyl-β-hexosaminidse (Ki)) was 0.022 µM and the Ki [2] was 0.024 µM.

`CCCCCCCCCCN1C(CO)C(O)C(O)C1CNC(=O)C1Cc2ccccc21` (stereo not drawn) [Compound 37] gave an IC50 (SARS-CoV) of 3.3 to 10 µM, an IC50 [3] of 9.6 ± 0.8 µM and an IC90 [3] of 18 ± 0.2 µM. The IC50 [4] was 4.7 µM and the IC90 [4] was 9.2 µM.

In the case of `CCCCCCCCCCCCN1C(CO)C(O)C(O)C1CNC(=O)C1Cc2ccccc21` (stereo not drawn) [Compound 38], the “cytotoxicity (XTT assay, cell proliferation)” value (BHK-21 cells) is reported as “low level of cytotoxicity”, the IC50 [3] is reported as 7.6 ± 0.1 µM and the IC90 [3] is reported as 9.7 ± 0.1 µM. The IC50 [4] was 6 ± 0.5 µM and the IC90 [4] was 9.1 ± 0.3 µM.

In the case of `CC(=O)NC[C@@H]1[C@@H](O)[C@H](O)[C@@H](CO)N1C` [Compound 42, (2R,3R,4R,5R)—N-methyl-2-(acetamido-methyl)-3,4-dihydroxy-5-(hydroxymethyl)pyrrolidine], the “effect on glycosaminoglycans (GAGs)” value [5] is given as “accumulation of glycosaminoglycans (GAGs) in the cell-associated fraction and a decrease in the release of GAGs into the culture supernatant” and the Ki [2] is given as 0.024 µM.

Work on `CC(=O)NCC1C(O)C(O)C(CO)N1CCCCCCCN` (stereo not drawn) [Compound 54] yielded a Ki [6] of 0.0026 µM.

Molecule `CC(=O)NCC1C(O)C(O)C(CO)N1CCOCCOCCN` (stereo not drawn) [Compound 56] has a Ki [6] of 0.06 µM.

`CCCCCCN1C(CO)C(O)C(O)C1CNC(C)=O` (stereo not drawn) [Compound 57] showed a Ki [6] of 0.18 µM.

With `CCCCCCCN1C(CO)C(O)C(O)C1CNC(C)=O` (stereo not drawn) [Compound 58] the Ki [6] was 0.25 µM.

For `CCCCCCCCN1C(CO)C(O)C(O)C1CNC(C)=O` (stereo not drawn) [Compound 59], the Ki [6] was 0.16 µM.

For `CCCCCCCCCN1C[C@H](O)[C@@H](O)[C@@H](O)[C@H]1CO` [NN-DGJ, N-nonyldeoxygalactonojirimycin], the “inhibition of JEV” value [7] is given as “did not inhibit” and the “inhibition of DEN-2” value [8] is given as “did not inhibit”.

From patent publication US8273788B2, “Five-membered iminocyclitol derivatives as selective and potent glycosidase inhibitors: new structures for antivirals and osteoarthritis therapeutics” (Academia Sinica, Taiwan, priority 2005, dated 2012)
